Assays:
chondrocytes = test: Catabolic phenotype of IL-1β-stimulated mouse chondrocytes (whole-genome sequencing, q-PCR, western blot); assay type: cell-based
Method: Mouse chondrocytes were obtained from 7-day-old C57BL/6 mice (Shanghai Slac laboratory animal Co., Ltd.), and the procedure was as follows: under aseptic surgical conditions, bilateral knee cartilages of C57 mice were carefully stripped and digested with 0.2% neutral collagenase (Serva, Germany) for 8 h; cell precipitates were obtained by centrifugation, and the cells were resuspended in modified Eagle medium (DMEM) (Gibco, USA) containing 10% FBS, inoculated in culture dishes, and cultured with high-sugar DMEM medium (containing 10% FBS, 100 U/mL penicillin and 100 mg/L streptomycin) at 37° C. in a 5% CO2 constant temperature incubator. The medium was changed for the first time at 48 h. […] The cells were collected by centrifugation and resuspended, and the concentration was adjusted for inoculation in culture dishes. The cells were subcultured by the above method, and the obtained cells were labeled as P1, P2, P3 generations, etc.
(2) Real-Time Fluorescent Quantitative PCR (Real Time q-PCR) Analysis • 1) The P1 generation mouse chondrocytes cultured in Embodiment 1 were used, the culture medium was sucked out from the culture dish, and the cells were washed once with PBS. • 2) Extraction of total RNA • 1. chloroform (⅕ volume of RNAiso Plus) was added to the homogenate lysate, the cover of the centrifuge tube was closed tightly, and the centrifuge tube was shaken violently by hand for 15 seconds. After the solution is fully emulsified (without phase separation phenomenon), the centrifuge tube was allowed to stand at room temperature for 5 minutes. • 2. the centrifuge tube was centrifuged at 12000 g under 4° C. for 5 minutes. • 3. the centrifuge tube was carefully taken out from the centrifugal machine, at this time the homogenate was divided into three layers: a colorless supernatant, a white protein layer in the middle, and a lower organic phase with color. […] Precipitate usually occurs at the bottom of a test tube after centrifugation.
On ice, SYBR Premix Ex Taq, upstream and downstream primers of catabolic and synthetic genes of chondrocytes, ROX Reference Dye, cDNA template and dH2O were added into a test tube. After being mixed evenly, the mixture was evenly divided into PCR tubes. The PCR tubes were placed in a Q-PCR instrument to detect the product.
P1 generation mouse chondrocytes cultured in Embodiment 1 were subjected to western blot analysis through operations including the following: • 1. Collecting of protein samples: The culture medium was sucked out, and the cells were washed twice with PBS at 4° C. and then dried. 100 μl of cell lysate was added to each well, the cells were lysed on ice for 10 min, and collected into a 1.5 ml centrifuge tube. […] The protein concentration was determined by the BCA Protein Quantification Kit. […]

articular cartilage = test: Mouse model of knee osteoarthritis (DMM), intra-articular injection, Safranin-O/fast green staining and OARSI score; assay type: in vivo, C57BL/6 mice; conditions: 8 weeks after DMM surgery, once a week, 5 times
From the text: Male C57BL/6 mice (n=30) were purchased from Shanghai Slac laboratory animal Co., Ltd. and reared to 8 weeks of age. The animal experimental operation method was reviewed and approved by the Ethics Committee of Tongji University School of Medicine. Male C57BL/6 mice reared to 8 weeks of age were anaesthetized, and a longitudinal incision was made in the medial side of the knee joint. The articular cavity was opened along the medial side of the patellar ligament, the fat pad in the intercondylar area was bluntly separated, and the meniscus tibial ligament connecting the medial meniscus was found and transected. The incision was closed after hemostasis by compression, and the mice were continued to be fed. The mice were anesthetized and sacrificed at 4, 8 and 12 weeks after surgery (n=8 for each group), and the knee joints were isolated for histological examination, forming the treatment group. Male C57BL/6 mice reared to 8 weeks of age were anaesthetized, and a longitudinal incision was made in the medial side of the knee joint. […] The damage degree of articular cartilage was observed by Safranin-O/ fast green staining and quantitatively evaluated by OARSI score. […]

COC(=O)CCC(=O)C(=O)OC [α-KG, dimethyl-α-ketoglutarate]
gene and protein expressions of catabolic phenotypic genes MMP3, MMP13, ADAMTS5, NOS2 at different time periods (chondrocytes; q-PCR and western blot, 6 h, 12 h, 24 h, 36 h, 10 ng/ml IL-1β + 7 mM α-KG): could inhibit the gene and protein expressions
expression of cartilage catabolic phenotypic genes MMP3, MMP13, ADAMTS5, NOS2 (chondrocytes; q-PCR, 24 h, 10 ng/ml IL-1β + 7 mM α-KG): inhibit the expression
protein expression of cartilage catabolic phenotypic genes MMP3, MMP13, ADAMTS5, NOS2 (chondrocytes; western blot, 24 h, 10 ng/ml IL-1β + 7 mM α-KG): inhibited the protein expression
expressions of catabolic phenotypes (metalloproteases MMP2, MMP3, MMP8, MMP9, MMP12, MMP13, MMP27; aggrecanases ADAMTS5, 7, 12, 15, 16, 17; NOS2) of chondrocytes (chondrocytes; whole-genome sequencing, 10 ng/ml IL-1β + 7 mM α-KG vs IL-1β group): suppressed
OARSI score, damage degree of articular cartilage (articular cartilage): significantly inhibit the progression of osteoarthritis
cartilage damage / progression of osteoarthritis (Safranin O/fast green histology) (articular cartilage; DMM+αKG group vs DMM group): no significant cartilage damage

— patent US20240033237A1, “USE OF A-KETOGLUTARATE IN MANUFACTURE OF MEDICAMENT” (TONGJI UNIVERSITY, priority 2019, published 2024)
